Measured values: patent US4874851A, “3',4'-dinitrogen substituted epipodophyllotoxin glucoside derivatives” (Bristol-Meyers Company, priority 1987, dated 1989)
≈ marks a conversion by molar mass, not a printed value.

Key:
P388 leukemia = assay: Antitumor activity against transplantable murine P388 leukemia in mice (i.p. implant); assay type: in vivo, murine (female CDF1 mice); settings: i.p. on days 5 and 8; 10^6 ascites cells i.p.; maximum effect over doses; >=125 significant
Description: (§1) Representative compounds of the present invention were evaluated for their antitumor activity in in vitro cytotoxicity assay against human and murine tumor cell lines, as well as against transplantable murine P388 leukemia.
Female CDF1 mice were implanted intraperitoneally with a tumor inoculum of 10^6 ascites cells of P388 murine leukemia and treated with various doses of a test compound; four mice were used for each dose level and ten were used as saline-treated control. The compounds were administered by intraperitoneal injection on days 5 and 8 (day 1 being the day of tumor implantation). Antitumor activity was expressed as % T/C which is the ratio of the median survival time (MST) of drug-treated group to the MST of saline-treated control group. A compound showing a % T/C value of 125 or greater is generally considered to have significant antitumor activity in the P388 test. The experiment lasted 31 days at the end of which time the number of survivors was noted. Table I presents the results of the above-described evaluation; only the maximum % T/C and the dose showing the maximum effect are reported.

B16-F10 murine melanoma = assay: In vitro cytotoxicity assay, B16-F10 murine melanoma; assay type: cell-based; settings: four-fold serial dilution, <500 μg/ml positive, two lines per compound; for IC50: Mus musculus, B16-F10, inhibit cell growth by 50%, read-out: IC50 B-16-F10; for IC50 B-16-F10: inhibit cell growth by 50%
Description: as §1
(§2) The in vitro cytotoxicity assay involved growing various mammalian tumor cells, including human tumor cells, on microtitre plates employing established tissue culture methods. The concentration of each compound required to inhibit cell growth by 50% (IC50) was then determined by a four-fold serial dilution technique. The validity of the method has been supported by a report published in the "Proceedings of the American Association for Cancer Research", 1984, 25: 1891 (Abst. No. 328). Tumor cells of the following types were employed for each compound tested: B16-F10 murine melanoma; KB human nasopharyngyl; Moser human colon; SW900 human lung; M109 murine lung; and three human colon tumor cell lines namely HCT-116, HCT-VM, and HCT-VP, the latter two being resistant to teniposide (VM) and etoposide (VP), respectively. IC50 values less than 500 μg/ml are a positive indicator of antitumor activity. Table II presents IC50 values of various compounds of the present invention against the aforementioned cell lines.

KB human nasopharyngyl = assay: In vitro cytotoxicity assay, KB human nasopharyngyl; assay type: cell-based; settings: inhibit cell growth by 50%, four-fold serial dilution, two lines per compound
Description: as §1, §2

M109 murine lung = assay: In vitro cytotoxicity assay, M109 murine lung; assay type: cell-based; settings: four-fold serial dilution, two lines per compound; for IC50: Mus musculus, M109, inhibit cell growth by 50%; for IC50 M109: inhibit cell growth by 50%
Description: as §1, §2

HCT-116 = assay: In vitro cytotoxicity assay, HCT-116 human colon; assay type: cell-based; settings: four-fold serial dilution, two lines per compound; for IC50: Homo sapiens, HCT-116, inhibit cell growth by 50%; for IC50 HCT-116: inhibit cell growth by 50%
Description: as §1, §2

Moser human colon = assay: In vitro cytotoxicity assay, Moser human colon; assay type: cell-based; settings: inhibit cell growth by 50%, four-fold serial dilution, two lines per compound; for IC50: Homo sapiens
Description: as §1, §2

SW900 human lung = assay: In vitro cytotoxicity assay, SW900 human lung; assay type: cell-based; settings: four-fold serial dilution, two lines per compound; for IC50: Homo sapiens, SW900, inhibit cell growth by 50%
Description: as §1, §2

HCT/VM46 = assay: In vitro cytotoxicity assay, HCT/VM46 human colon, resistant to teniposide; assay type: cell-based; settings: inhibit cell growth by 50%, two lines per compound
Description: as §1, §2

HCT/VP35 = assay: In vitro cytotoxicity assay, HCT/VP35 human colon, resistant to etoposide; assay type: cell-based; settings: inhibit cell growth by 50%, two lines per compound
Description: as §1, §2

[1] = tested on: small cell lung cancer, non-lymphocytic leukemia, and non-seminomatous testicular cancer; settings: AMA Drug Evaluation, 5th Edition, 1983; cited from earlier work

Structure (SMILES): COC1=CC(C2c3cc4c(cc3C(OC3OC5COC(C)OC5C(O)C3O)C3COC(=O)C23)OCO4)=CC(=NOCc2ccccc2)C1=NOCc1ccccc1 (stereo not shown) [Example 1, 4'-Dehydroxy-3'-demethoxy-etoposide 3',4'-bis-O-benzyloxime]
- Max. % T/C (median survival time treated / saline control) (P388 leukemia): 126%
- IC50 (B16-F10 murine melanoma): 14.5 µg/mL (≈ 18.5 µM)
- IC50 B-16-F10 (B16-F10 murine melanoma): 14.1 µg/mL (≈ 18 µM)
- IC50 (KB human nasopharyngyl; Homo sapiens): 37 µg/mL (≈ 47.3 µM)
- IC50 KB (KB human nasopharyngyl): 28 µg/mL (≈ 35.8 µM)
- IC50 (M109 murine lung): 83 µg/mL (≈ 106 µM)
- IC50 M109 (M109 murine lung): 59 µg/mL (≈ 75.4 µM)

Structure (SMILES): CON=C1C=C(C2c3cc4c(cc3C(OC3OC5COC(C)OC5C(O)C3O)C3COC(=O)C23)OCO4)C=C(OC)C1=NOC (stereo not shown) [Example 2, 4'-Dehydroxy-3'-demethoxy-etoposide 3',4'-bis-O-methyloxime]
- Max. % T/C (median survival time treated / saline control) (P388 leukemia): 175%
- IC50 (B16-F10 murine melanoma): 29 µg/mL (≈ 46 µM)
- IC50 B-16-F10 (B16-F10 murine melanoma): 51 µg/mL (≈ 80.9 µM)
- IC50 (HCT-116): 84 µg/mL (≈ 133 µM)
- IC50 HCT-116 (HCT-116): 91 µg/mL (≈ 144 µM)
- IC50 (Moser human colon): 54 µg/mL (≈ 85.6 µM)
- IC50 MOSER (Moser human colon): 40 µg/mL (≈ 63.4 µM)
- IC50 (SW900 human lung): > 250 µg/mL

Structure (SMILES): COc1cc(C2c3cc4c(cc3C(OC3OC5COC(C)OC5C(O)C3O)C3COC(=O)C23)OCO4)cc(N)c1N (stereo not shown) [Example 3, 4'-Dehydroxy-3'-demethoxy-3',4'-diamino etoposide]
- Max. % T/C (median survival time treated / saline control) (P388 leukemia): 216%
- IC50 (HCT-116): 108 µg/mL (≈ 189 µM)
- IC50 HCT-116 (HCT-116): 102 µg/mL (≈ 178 µM)
- IC50 (Moser human colon): 87 µg/mL (≈ 152 µM)
- IC50 MOSER (Moser human colon): 91 µg/mL (≈ 159 µM)
- IC50 (M109 murine lung): 104 µg/mL (≈ 182 µM)
- IC50 M109 (M109 murine lung): 87 µg/mL (≈ 152 µM)

Structure (SMILES): COc1cc(C2c3cc4c(cc3C(OC3OC5COC(C)OC5C(O)C3O)C3COC(=O)C23)OCO4)cc(NC(C)=O)c1NC(C)=O (stereo not shown) [Example 4, 4'-Dehydroxy-3'-demethoxy-3',4'-bis-acetylamino etoposide]
- Max. % T/C (median survival time treated / saline control) (P388 leukemia): 105%
- IC50 (B16-F10 murine melanoma): 116 µg/mL (≈ 177 µM)
- IC50 B-16-F10 (B16-F10 murine melanoma): 98 µg/mL (≈ 149 µM)
- IC50 (HCT-116): > 250 µg/mL
- IC50 (Moser human colon): 106 µg/mL (≈ 161 µM)
- IC50 MOSER (Moser human colon): 123 µg/mL (≈ 187 µM)
- IC50 (SW900 human lung): > 250 µg/mL

Structure (SMILES): COc1cc(C2c3cc4c(cc3C(OC3OC5COC(C)OC5C(O)C3O)C3COC(=O)C23)OCO4)cc(N=Cc2ccncc2)c1N=Cc1ccncc1 (stereo not shown) [Example 10, 4'-Dehydroxy-3'-demethoxy-3',4'-bis-(4-pyridylmethylene) amino Etoposide]
- Max. % T/C (median survival time treated / saline control) (P388 leukemia): 145%
- IC50 (B16-F10 murine melanoma): 59 µg/mL (≈ 78.6 µM)
- IC50 B-16-F10 (B16-F10 murine melanoma): 100 µg/mL (≈ 133 µM)
- IC50 (HCT-116): 81 µg/mL (≈ 108 µM)
- IC50 HCT-116 (HCT-116): 103 µg/mL (≈ 137 µM)
- IC50 (SW900 human lung): > 250 µg/mL

Structure (SMILES): COc1cc(C2c3cc4c(cc3C(OC3OC5COC(C)OC5C(O)C3O)C3COC(=O)C23)OCO4)cc2nn[nH]c12 (stereo not shown) [Example 17, 4'-Dehydroxy-3'-demethoxy-etoposide 3',4'-triazole]
- Max. % T/C (median survival time treated / saline control) (P388 leukemia): 125%
- IC50 (B16-F10 murine melanoma): 45 µg/mL (≈ 77.1 µM)
- IC50 B-16-F10 (B16-F10 murine melanoma): 55 µg/mL (≈ 94.3 µM)
- IC50 (HCT-116): 53 µg/mL (≈ 90.8 µM)
- IC50 HCT-116 (HCT-116): 62 µg/mL (≈ 106 µM)
- IC50 (HCT/VM46; Homo sapiens): 64 µg/mL (≈ 110 µM)
- IC50 HCT/VM46 (HCT/VM46): 88 µg/mL (≈ 151 µM)
- IC50 (HCT/VP35; Homo sapiens, HCT/VP35, etoposide-resistant): 84 µg/mL (≈ 144 µM)
- IC50 HCT/VP35 (HCT/VP35; etoposide-resistant): 82 µg/mL (≈ 141 µM)
- IC50 (Moser human colon): 91 µg/mL (≈ 156 µM)
- IC50 MOSER (Moser human colon): 88 µg/mL (≈ 151 µM)
- IC50 (SW900 human lung): 78 µg/mL (≈ 134 µM)
- IC50 SW900 (SW900 human lung; inhibit cell growth by 50%): 89 µg/mL (≈ 153 µM)

Structure (SMILES): COc1cc(C2c3cc4c(cc3C(OC3OC5COC(C)OC5C(O)C3O)C3COC(=O)C23)OCO4)cc2nc[nH]c12 (stereo not shown) [Example 18, 4'-Dehydroxy-3'-demethoxy etoposide 3',4'-imidazole]
- Max. % T/C (median survival time treated / saline control) (P388 leukemia): 115%
- IC50 (B16-F10 murine melanoma): 82 µg/mL (≈ 141 µM)
- IC50 B-16-F10 (B16-F10 murine melanoma): 55 µg/mL (≈ 94.4 µM)
- IC50 (HCT-116): > 250 µg/mL
- IC50 (Moser human colon): 116 µg/mL (≈ 199 µM)
- IC50 MOSER (Moser human colon): 115 µg/mL (≈ 197 µM)
- IC50 (SW900 human lung): > 250 µg/mL

Structure (SMILES): COc1cc(C2c3cc4c(cc3C(OC3OC5COC(C)OC5C(O)C3O)C3COC(=O)C23)OCO4)cc2nc(C)c(C)nc12 (stereo not shown) [Example 20, 4'-Dehydroxy-3'-demethoxy-etoposide 3',4'-(2,3-dimethylpyrazine)]
- Max. % T/C (median survival time treated / saline control) (P388 leukemia): 110%
- IC50 (B16-F10 murine melanoma): 118 µg/mL (≈ 190 µM)
- IC50 B-16-F10 (B16-F10 murine melanoma): 113 µg/mL (≈ 181 µM)
- IC50 (HCT-116): 103 µg/mL (≈ 165 µM)
- IC50 HCT-116 (HCT-116): 99 µg/mL (≈ 159 µM)
- IC50 (Moser human colon): 113 µg/mL (≈ 181 µM)
- IC50 MOSER (Moser human colon): 90 µg/mL (≈ 145 µM)
- IC50 (SW900 human lung): > 250 µg/mL

Structure (SMILES): CCOP1(=S)Nc2cc(C3c4cc5c(cc4C(OC4OC6COC(C)OC6C(O)C4O)C4COC(=O)C34)OCO5)cc(OC)c2N1 (stereo not shown) [Example 21, 4'-Dehydroxy-3'-demethoxy etoposide 3',4'-ethylthiophosphamide]
- Max. % T/C (median survival time treated / saline control) (P388 leukemia): 145%
- IC50 (B16-F10 murine melanoma): 23 µg/mL (≈ 33.9 µM)
- IC50 B-16-F10 (B16-F10 murine melanoma): 17.9 µg/mL (≈ 26.4 µM)
- IC50 (HCT-116): 20 µg/mL (≈ 29.5 µM)
- IC50 HCT-116 (HCT-116): 26 µg/mL (≈ 38.3 µM)
- IC50 (Moser human colon): 21 µg/mL (≈ 30.9 µM)
- IC50 MOSER (Moser human colon): 23 µg/mL (≈ 33.9 µM)
- IC50 (SW900 human lung): > 250 µg/mL

Structure (SMILES): COc1cc([C@@H]2c3cc4c(cc3[C@@H](O[C@@H]3O[C@@H]5CO[C@@H](C)O[C@H]5[C@H](O)[C@H]3O)[C@H]3COC(=O)[C@H]23)OCO4)cc(OC)c1O [etoposide]
- activity in the treatment of a variety of cancers (in words) [1]: active in the treatment of a variety of cancers

Structure (SMILES): COc1cc([C@@H]2c3cc4c(cc3[C@@H](O[C@@H]3O[C@@H]5CO[C@@H](c6cccs6)O[C@H]5[C@H](O)[C@H]3O)[C@H]3COC(=O)[C@H]23)OCO4)cc(OC)c1O [teniposide]
- activity in the treatment of a variety of cancers (in words) [1]: active in the treatment of a variety of cancers
